In ChEMBL document CHEMBL4406898, “Dual mode of binding of anti cancer drug epirubicin to G-quadruplex [d-(TTAGGGT)]4 containing human telomeric DNA sequence induces thermal stabilization” (Bioorg Med Chem, 2019):

Experiments:
Tetrahymena thermophila [1] = assay: Binding affinity to Tetrahymena thermophila telomeric 7 G-quadruplex DNA assessed as binding constant Kb2 in presence of 10 mM KCl by fluorescence spectroscopy
Tetrahymena thermophila [2] = assay: Binding affinity to Tetrahymena thermophila telomeric 7 G-quadruplex DNA assessed as binding constant Kb1 in presence of 10 mM KCl by fluorescence spectroscopy

A Kb (Tetrahymena thermophila [1]) of 1.3 ×10⁵ /M and a Kb (Tetrahymena thermophila [2]) of 6.3 ×10⁵ /M were found for COc1cccc2c1C(=O)c1c(O)c3c(c(O)c1C2=O)C[C@@](O)(C(C)=O)C[C@@H]3O[C@H]1C[C@H](N)[C@H](O)[C@H](C)O1 in this work.
